Data reported in ChEMBL document CHEMBL5257092, “Synthesis and biological evaluation of biaryl alkyl ethers as inhibitors of IDO1” (Bioorg Med Chem Lett, 2023).

Legend:
[1] = target: T1, Cytochrome P450 2B6 (Homo sapiens, UniProt P20813); assay: Inhibition of human CYP2B6; format: ADME
T1 sequence (P20813 whole entry): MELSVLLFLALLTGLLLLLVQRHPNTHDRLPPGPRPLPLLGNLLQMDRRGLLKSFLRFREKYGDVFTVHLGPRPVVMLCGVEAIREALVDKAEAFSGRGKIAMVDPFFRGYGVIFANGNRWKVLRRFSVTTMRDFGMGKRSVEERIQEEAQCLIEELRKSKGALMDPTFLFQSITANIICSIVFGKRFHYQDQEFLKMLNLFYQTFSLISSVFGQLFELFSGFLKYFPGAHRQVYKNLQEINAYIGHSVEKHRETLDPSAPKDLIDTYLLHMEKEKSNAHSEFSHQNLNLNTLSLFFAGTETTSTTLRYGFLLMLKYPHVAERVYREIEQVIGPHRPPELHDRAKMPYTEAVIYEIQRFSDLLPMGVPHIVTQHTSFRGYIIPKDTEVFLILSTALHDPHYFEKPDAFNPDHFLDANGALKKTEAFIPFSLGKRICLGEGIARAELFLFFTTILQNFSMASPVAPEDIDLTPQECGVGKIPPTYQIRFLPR

[2] = Metabolic stability in mouse liver microsomes assessed as compound remaining at 0.5 uM incubated for 10 mins relative to control; format: ADME, Microsome; settings: for remaining at 10 min, 0.5 µM: liver microsomes, read-out: Stability
[3] = Stability in mouse liver microsomes assessed as half life; format: ADME, Microsome
[4] = Metabolic stability in human liver microsomes assessed as compound remaining at 0.5 uM incubated for 10 mins relative to control; format: ADME, Microsome; settings: for remaining at 10 min, 0.5 µM: liver microsomes, read-out: Stability
[5] = target: T2, Cytochrome P450 2C9 (Homo sapiens, UniProt P11712); assay: Inhibition of CYP2C9 (unknown origin); format: ADME
[6] = Metabolic stability in rat liver microsomes assessed as compound remaining at 0.5 uM incubated for 10 mins relative to control; format: ADME, Microsome; settings: for remaining at 10 min, 0.5 µM: liver microsomes, read-out: Stability; for Stability: microsomes, 10 min, 0.5 µM
[7] = Stability in dog liver microsomes assessed as half life; format: ADME, Canis lupus familiaris, Microsome
[8] = Stability in human liver microsomes assessed as half life; format: ADME, Microsome
[9] = target: Cytochrome P450 3A4 (Homo sapiens, UniProt P08684); assay: Inhibition of human CYP3A4; format: ADME
[10] = target: T3, Cytochrome P450 1A2 (Homo sapiens, UniProt P05177); assay: Inhibition of human CYP1A2; format: ADME
T3 sequence (P05177 whole entry): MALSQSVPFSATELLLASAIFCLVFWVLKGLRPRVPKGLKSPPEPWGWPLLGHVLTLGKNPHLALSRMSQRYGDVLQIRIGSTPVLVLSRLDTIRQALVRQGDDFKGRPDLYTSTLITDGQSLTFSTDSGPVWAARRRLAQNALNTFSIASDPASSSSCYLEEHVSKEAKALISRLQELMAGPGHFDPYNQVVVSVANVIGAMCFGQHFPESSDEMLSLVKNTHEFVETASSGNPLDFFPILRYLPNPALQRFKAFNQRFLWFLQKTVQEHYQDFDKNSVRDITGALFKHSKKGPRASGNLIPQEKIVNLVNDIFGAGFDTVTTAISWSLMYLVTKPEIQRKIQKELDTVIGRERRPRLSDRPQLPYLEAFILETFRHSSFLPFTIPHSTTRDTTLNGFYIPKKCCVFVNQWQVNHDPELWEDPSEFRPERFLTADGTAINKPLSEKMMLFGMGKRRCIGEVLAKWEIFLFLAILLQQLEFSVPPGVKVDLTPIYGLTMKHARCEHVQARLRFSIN

[11] = target: T4, Cytochrome P450 2C19 (Homo sapiens, UniProt P33261); assay: Inhibition of human CYP2C19; format: ADME
[12] = target: T2, Cytochrome P450 2C9; assay: Inhibition of human CYP2C9; format: ADME
[13] = Stability in rat liver microsomes assessed as half life; format: ADME, Microsome
[14] = target: Cytochrome P450 2D6 (Homo sapiens, UniProt P10635); assay: Inhibition of human CYP2D6; format: ADME
[15] = target: Tryptophan 2,3-dioxygenase (Homo sapiens, UniProt P48775); assay: Inhibition of TDO (unknown origin) expressed in HEK cells; format: cell-based
[16] = target: T5, Cytochrome P450 2C8 (Homo sapiens, UniProt P10632); assay: Inhibition of human CYP2C8; format: ADME
T5 sequence (P10632 whole entry): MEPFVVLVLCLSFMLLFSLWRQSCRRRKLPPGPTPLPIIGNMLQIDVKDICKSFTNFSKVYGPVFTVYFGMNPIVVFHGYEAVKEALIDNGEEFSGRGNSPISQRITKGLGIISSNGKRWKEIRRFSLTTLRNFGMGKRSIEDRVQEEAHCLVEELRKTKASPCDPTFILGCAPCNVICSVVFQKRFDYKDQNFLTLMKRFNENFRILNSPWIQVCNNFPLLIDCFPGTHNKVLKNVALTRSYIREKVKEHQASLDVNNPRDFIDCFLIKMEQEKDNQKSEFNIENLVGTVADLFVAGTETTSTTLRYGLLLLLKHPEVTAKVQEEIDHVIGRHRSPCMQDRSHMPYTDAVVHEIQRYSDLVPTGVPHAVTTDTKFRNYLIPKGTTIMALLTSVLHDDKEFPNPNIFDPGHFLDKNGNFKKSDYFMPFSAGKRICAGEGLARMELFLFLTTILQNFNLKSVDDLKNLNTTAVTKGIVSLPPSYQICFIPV

[17] = target: Indoleamine 2,3-dioxygenase 1 (Homo sapiens, UniProt P14902); assay: Inhibition of IDO1 (unknown origin) expressed in human HeLa cells; format: cell-based
[18] = Stability in monkey liver microsomes assessed as half life; format: ADME, Macaca mulatta, Microsome; settings: rhesus monkey
[19] = target: T6, Voltage-gated inwardly rectifying potassium channel KCNH2 (Homo sapiens, UniProt Q12809); assay: Inhibition of hERG; format: toxicity
[20] = target: T7, Nuclear receptor subfamily 1 group I member 2 (Homo sapiens, UniProt O75469); assay: Transactivation of PXR (unknown origin); format: toxicity
T7 sequence (O75469 whole entry): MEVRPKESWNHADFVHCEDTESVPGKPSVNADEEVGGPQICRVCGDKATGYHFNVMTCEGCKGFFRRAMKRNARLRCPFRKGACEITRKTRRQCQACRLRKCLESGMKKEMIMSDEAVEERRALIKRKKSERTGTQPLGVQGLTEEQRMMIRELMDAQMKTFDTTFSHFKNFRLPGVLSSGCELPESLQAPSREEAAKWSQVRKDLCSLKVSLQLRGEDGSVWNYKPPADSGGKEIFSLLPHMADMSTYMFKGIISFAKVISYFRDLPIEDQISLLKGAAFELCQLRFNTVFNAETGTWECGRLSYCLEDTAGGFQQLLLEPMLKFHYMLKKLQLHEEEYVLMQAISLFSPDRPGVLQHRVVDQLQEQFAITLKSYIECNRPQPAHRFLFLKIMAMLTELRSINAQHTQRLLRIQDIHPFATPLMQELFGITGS

[21] = target: T5, Cytochrome P450 2C8; assay: Inhibition of CYP2C8 (unknown origin); format: ADME
[22] = target: T4, Cytochrome P450 2C19; assay: Inhibition of CYP2C19 (unknown origin); format: ADME
[23] = target: hERG (Homo sapiens, UniProt Q12809); assay: (§1) Inhibition of hERG at 10 uM relative to control; format: toxicity
[24] = target: T6, Voltage-gated inwardly rectifying potassium channel KCNH2; assay: as §1; format: toxicity; settings: 10 µM

T2 sequence (P11712 whole entry): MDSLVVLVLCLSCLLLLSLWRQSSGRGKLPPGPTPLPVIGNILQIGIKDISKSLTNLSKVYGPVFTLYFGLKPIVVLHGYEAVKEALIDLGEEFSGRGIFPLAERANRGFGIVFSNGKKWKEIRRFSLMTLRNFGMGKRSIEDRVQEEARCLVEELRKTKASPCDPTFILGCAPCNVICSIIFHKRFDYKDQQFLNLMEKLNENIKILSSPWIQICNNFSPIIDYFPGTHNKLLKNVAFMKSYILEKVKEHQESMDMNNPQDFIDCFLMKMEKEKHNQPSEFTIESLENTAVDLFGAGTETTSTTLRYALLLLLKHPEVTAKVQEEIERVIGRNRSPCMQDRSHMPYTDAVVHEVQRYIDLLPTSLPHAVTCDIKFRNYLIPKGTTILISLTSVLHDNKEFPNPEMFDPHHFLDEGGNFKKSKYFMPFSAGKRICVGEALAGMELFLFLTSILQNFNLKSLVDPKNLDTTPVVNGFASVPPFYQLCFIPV
T4 sequence (P33261 whole entry): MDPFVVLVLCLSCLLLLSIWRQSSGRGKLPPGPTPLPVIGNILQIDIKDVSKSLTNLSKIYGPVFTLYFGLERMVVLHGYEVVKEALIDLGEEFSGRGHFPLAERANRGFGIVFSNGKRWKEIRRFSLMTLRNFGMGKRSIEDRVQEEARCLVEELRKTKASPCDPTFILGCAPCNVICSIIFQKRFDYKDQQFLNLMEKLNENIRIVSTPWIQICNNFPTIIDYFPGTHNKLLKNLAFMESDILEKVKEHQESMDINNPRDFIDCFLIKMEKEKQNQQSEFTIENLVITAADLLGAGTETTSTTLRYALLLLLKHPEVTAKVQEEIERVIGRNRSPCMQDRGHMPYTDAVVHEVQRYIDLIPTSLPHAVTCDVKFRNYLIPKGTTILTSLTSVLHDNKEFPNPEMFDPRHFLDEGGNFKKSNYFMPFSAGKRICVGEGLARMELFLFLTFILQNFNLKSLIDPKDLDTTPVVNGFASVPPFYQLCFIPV
Indoleamine 2,3-dioxygenase 1, sequence (P14902 whole entry): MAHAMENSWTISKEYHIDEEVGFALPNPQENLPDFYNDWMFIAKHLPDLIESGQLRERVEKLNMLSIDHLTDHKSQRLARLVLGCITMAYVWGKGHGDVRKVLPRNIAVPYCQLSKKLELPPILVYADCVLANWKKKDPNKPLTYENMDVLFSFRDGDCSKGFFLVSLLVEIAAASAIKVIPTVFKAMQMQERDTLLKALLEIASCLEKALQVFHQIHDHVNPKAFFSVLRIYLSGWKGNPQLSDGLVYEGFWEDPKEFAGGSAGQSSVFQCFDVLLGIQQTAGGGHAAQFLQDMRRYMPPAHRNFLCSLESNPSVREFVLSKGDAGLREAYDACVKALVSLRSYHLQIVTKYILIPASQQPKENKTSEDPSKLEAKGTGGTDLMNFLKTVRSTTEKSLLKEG
Tryptophan 2,3-dioxygenase, sequence (P48775 whole entry): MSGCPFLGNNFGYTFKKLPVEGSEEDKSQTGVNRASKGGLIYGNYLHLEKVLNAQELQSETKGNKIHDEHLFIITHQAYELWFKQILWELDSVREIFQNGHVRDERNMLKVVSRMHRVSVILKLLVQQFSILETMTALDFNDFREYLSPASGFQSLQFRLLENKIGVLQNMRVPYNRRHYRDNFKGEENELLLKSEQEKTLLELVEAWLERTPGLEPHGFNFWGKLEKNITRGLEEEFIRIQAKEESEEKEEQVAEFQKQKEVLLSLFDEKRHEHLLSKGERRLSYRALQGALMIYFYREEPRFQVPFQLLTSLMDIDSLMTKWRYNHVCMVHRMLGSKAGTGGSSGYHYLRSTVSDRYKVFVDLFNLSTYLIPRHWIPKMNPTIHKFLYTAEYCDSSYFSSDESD
T6 sequence (Q12809 whole entry): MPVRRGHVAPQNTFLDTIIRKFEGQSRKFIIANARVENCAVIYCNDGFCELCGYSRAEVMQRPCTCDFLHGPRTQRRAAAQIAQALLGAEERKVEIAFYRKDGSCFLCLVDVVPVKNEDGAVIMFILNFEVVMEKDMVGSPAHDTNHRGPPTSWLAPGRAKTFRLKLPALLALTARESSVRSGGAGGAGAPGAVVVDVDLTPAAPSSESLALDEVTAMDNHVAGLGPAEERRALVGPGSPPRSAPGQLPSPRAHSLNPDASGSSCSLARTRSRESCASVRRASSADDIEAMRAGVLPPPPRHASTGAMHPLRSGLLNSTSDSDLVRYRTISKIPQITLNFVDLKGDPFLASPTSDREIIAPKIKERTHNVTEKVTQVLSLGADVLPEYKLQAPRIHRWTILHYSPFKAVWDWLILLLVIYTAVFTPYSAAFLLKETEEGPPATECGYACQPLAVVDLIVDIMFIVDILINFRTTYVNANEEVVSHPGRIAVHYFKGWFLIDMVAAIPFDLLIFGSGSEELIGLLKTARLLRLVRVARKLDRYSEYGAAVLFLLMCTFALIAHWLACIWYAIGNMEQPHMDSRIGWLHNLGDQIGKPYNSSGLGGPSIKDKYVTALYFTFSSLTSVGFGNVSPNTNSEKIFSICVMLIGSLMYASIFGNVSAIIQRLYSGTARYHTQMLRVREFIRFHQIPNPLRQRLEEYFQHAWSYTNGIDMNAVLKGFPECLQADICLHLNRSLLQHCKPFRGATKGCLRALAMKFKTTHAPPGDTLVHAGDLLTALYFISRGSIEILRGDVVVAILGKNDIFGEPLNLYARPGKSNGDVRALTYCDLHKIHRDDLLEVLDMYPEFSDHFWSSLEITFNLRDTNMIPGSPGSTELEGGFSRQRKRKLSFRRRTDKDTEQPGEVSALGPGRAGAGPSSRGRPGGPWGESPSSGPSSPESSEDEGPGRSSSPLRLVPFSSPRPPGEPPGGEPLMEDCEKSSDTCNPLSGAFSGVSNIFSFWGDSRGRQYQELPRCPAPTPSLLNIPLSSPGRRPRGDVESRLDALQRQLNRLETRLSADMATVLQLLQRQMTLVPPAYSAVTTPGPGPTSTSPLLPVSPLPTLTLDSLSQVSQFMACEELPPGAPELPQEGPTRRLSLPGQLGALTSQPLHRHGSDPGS
Cytochrome P450 2D6, sequence (P10635 whole entry): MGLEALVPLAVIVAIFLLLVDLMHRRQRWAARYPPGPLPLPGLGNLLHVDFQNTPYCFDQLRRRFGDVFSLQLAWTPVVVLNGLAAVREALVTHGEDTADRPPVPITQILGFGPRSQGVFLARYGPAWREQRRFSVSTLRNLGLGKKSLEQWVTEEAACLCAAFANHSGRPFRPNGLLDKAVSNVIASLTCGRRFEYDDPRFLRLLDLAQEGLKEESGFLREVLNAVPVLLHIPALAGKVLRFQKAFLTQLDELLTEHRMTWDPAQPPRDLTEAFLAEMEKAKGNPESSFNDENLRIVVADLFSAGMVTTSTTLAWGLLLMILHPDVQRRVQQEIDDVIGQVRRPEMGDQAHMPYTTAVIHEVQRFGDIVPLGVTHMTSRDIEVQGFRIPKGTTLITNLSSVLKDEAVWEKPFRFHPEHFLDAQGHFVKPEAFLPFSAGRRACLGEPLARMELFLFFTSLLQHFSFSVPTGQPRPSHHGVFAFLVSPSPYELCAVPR
hERG, sequence (Q12809 whole entry): as the sequence (Q12809 whole entry) above

Structure (SMILES)	remaining at 10 min, 0.5 µM [2] [%]	remaining at 10 min, 0.5 µM [4] [%]	IC50 [5] [µM]	remaining at 10 min, 0.5 µM [6] [%]	IC50 [15] [µM]	IC50 [17] [µM]	IC50 [19] [µM]	also measured
Cc1ccc(NC(=O)Nc2cc(-c3ccccc3-c3nnn[nH]3)ccc2N(CC(C)C)CC(C)C)cc1	33	37	2.7	60	> 7.5	0.007		IC50 [1]: 19 µM; half-life [3]: 6.6 min; half-life [7]: 11 min; half-life [8]: 9.1 min; IC50 [9]: 7.8 µM; IC50 [10]: 9.5 µM; IC50 [11]: 8.7 µM; IC50 [12]: 2.7 µM; half-life [13]: 22 min; IC50 [14]: 18 µM; IC50 [16]: 9.2 µM; half-life [18]: 4 min
COc1ccc(-c2ccc(OC(C(C)C)C(C)C)c(NC(=O)Nc3ccc(C)cc3)c2)cc1C(=O)O						1.6		
CCCC(CCC)Oc1ccc(-c2ccccc2-c2nn[nH]n2)cc1NC(=O)Nc1ccc(C)cc1	47	62	1.8	76		0.025	> 80	
CCCOc1c(CCC)cc(-c2ccccc2-c2nn[nH]n2)cc1NC(=O)Nc1ccc(C)cc1	68	82	6.2	86		0.031	40	EC50 [20]: > 9 µM
CC(C)CN(CC(C)C)c1ccc(-c2ccccc2C(=O)O)cc1NC(=O)Nc1ccccc1F	81	75	5.1	72		0.013		
C=CC1(C=C)Oc2c(NC(=O)Nc3ccc(C)cc3)cc(-c3ccccc3-c3nn[nH]n3)cc2[C@@H]1c1ccccc1	77	94		86	> 7.5	0.0034	> 80	IC50 [21]: 0.27 µM
Cc1ccc(NC(=O)Nc2cc(-c3ccccc3-c3nn[nH]n3)cc3c2O[C@@H](C)C/C=C\[C@H]3c2ccccc2)cc1	76	94		61		0.012		IC50 [21]: 1.9 µM
COc1ccc(-c2ccc(Oc3ccccc3C(C)(C)C)c(NC(=O)Nc3ccccc3F)c2)cc1C(=O)O	61	100		100	> 7.5			IC50 [21]: 5.1 µM
Cc1ccc(NC(=O)Nc2cc(-c3ccccc3-c3nn[nH]n3)ccc2OC(C(C)C)C(C)C)cc1	2	41	1.4	48			18	
Cc1ccc(NC(=O)Nc2cc(-c3ccccc3-c3nn[nH]n3)cc3c2O[C@@H](C)CCC[C@H]3c2ccccc2)cc1	66	100		74		0.025		IC50 [21]: 3.2 µM
CCCOc1c(CCC)cc(-c2ccccc2C(=O)O)cc1NC(=O)Nc1ccc(C)cc1	82	100	14	85			> 80	EC50 [20]: > 20 µM
C=C[C@@H]1Oc2c(NC(=O)Nc3ccc(C)cc3)cc(-c3ccccc3-c3nn[nH]n3)cc2[C@@H]1c1ccccc1 (racemic)	57	82	0.97	77		0.0059		
Cc1ccc(NC(=O)Nc2cc(-c3ccccc3-c3nn[nH]n3)cc3c2OCC=CC3c2ccccc2)cc1 (racemic)	68	69	2.8	66		0.011	69	
C=C[C@H]1Oc2c(NC(=O)Nc3ccc(C)cc3)cc(-c3ccccc3-c3nnn[nH]3)cc2[C@@H]1c1ccccc1 (racemic)	75	78		88	> 7.5	0.012		IC50 [21]: 1 µM
COc1ccc(-c2ccc(O[C@@H]3CCCC[C@H]3C)c(NC(=O)Nc3ccc(C)cc3)c2)cc1C(=O)O (racemic)						> 1		
Cc1ccc(NC(=O)Nc2cc(-c3ccccc3C(=O)O)ccc2O[C@@H]2CCCC[C@H]2C)cc1 (racemic)						0.24		
Cc1ccc(NC(=O)Nc2cc(-c3ccccc3-c3nn[nH]n3)cc3c2OC(C)(C)[C@H]3c2ccccc2)cc1 (racemic)	42	52		73		0.0063		IC50 [22]: 0.42 µM
Cc1ccc(NC(=O)Nc2cc(-c3ccccc3-c3nc(=O)[nH]o3)cc3c2OCCCC3c2ccccc2)cc1 (stereo in doubt; 19)	56	72			> 6	0.0015		Stability [6]: 61%; inhibition at 10 µM [23]: 12%; IC50 [22]: 1.2 µM
Cc1ccc(NC(=O)Nc2cc(-c3ccccc3-c3nn[nH]n3)cc3c2OCCCC3c2ccccc2)cc1 (stereo in doubt; 21)	84	70	3.7	92	> 6	0.0036		IC50 [1]: 17 µM; half-life [3]: 25 min; half-life [7]: 22 min; half-life [8]: 18 min; IC50 [9]: 8.4 µM; IC50 [10]: > 20 µM; IC50 [11]: 6.7 µM; IC50 [12]: 3.7 µM; half-life [13]: 54 min; inhibition at 10 µM [23]: 41%; IC50 [14]: > 20 µM; IC50 [16]: 18 µM; half-life [18]: 7.4 min
Cc1ccc(NC(=O)Nc2cc(-c3ccccc3-c3nn[nH]n3)cc3c2OCCCC3c2ccccc2)cc1 (stereo in doubt; 22)			6.8			0.015		Stability ([2]; microsomes, 10 min, 0.5 µM): 100%; Stability ([4]; microsomes, 10 min, 0.5 µM): 72%; Stability [6]: 96%; inhibition (INH) [24]: 53%; IC50 ([15]; hek): > 6 µM
